Laboratory results taken from article PMC11409709, “Inhibition of DRP-1 mitochondrial mitophagy and fission by novel α-aminophosphonates bearing pyridine: synthesis, biological evaluations, and computer-aided design” (BMC Chemistry, 2024).
“Also recorded” adds a separate entry of the source. Like-named read-outs stand apart in the source and are kept apart here.

Assays:
ABTS radical scavenging = settings: for IC50: 30 min dark, 734 nm
Procedure: (§1) With slight modifications, the DPPH and ABTS methods were used to test the new phosphonate’s free radical scavenging activity. Briefly, one milliliter of a 0.1 mM DPPH in methanol solution and ABTS in distilled water were added to the newly synthesized compounds. For 30 min, the mixture was left in the dark. The synthetic compounds’ ability to scavenge free radicals was compared to that of L. Ascorbic acid. At 517 nm for DPPH and 734 nm for ABTS, optical density was recorded, and the concentration inhibition was computed.
(§2) The percentage of inhibition is equal to [(A control − A test)/A control] × 100, where A control represents the control absorbance and A test represents the test sample absorbance. It was established what sample concentration (IC50) produced 50% inhibition. Every experiment was conducted in triplicate, and the mean ± SE IC50 values were reported.

DPPH radical scavenging = settings: for IC50: 0.1 mM DPPH in methanol, 30 min dark, 517 nm
Procedure: as §1, §2

[1] = system: bacterial and fungal strains; experiment: Disc diffusion, whole panel (result in words); type: cell-based; settings: 1 mg/mL
Procedure: (§3) The produced compounds’ antimicrobial activity was evaluated using a panel of two gram-positive bacteria (Bacillus subtilis (#MTCC NO 441) and Staphylococcus aureus (#MTCC NO 96). as well as two Gram-negative bacteria (Pseudomonas aeruginosa (#MTCC NO 1688), Escherichia coli(#MTCC NO 452)). Two fungi [Candida albicans(#MTCC NO 183) and Aspergillus flavus(#MTCC NO 1344)] were used to assess the compounds' anti-fungal properties. Paper discs of Whatman filter paper with a standard size of […] were made, dissolved in DMSO, and then sterilized in an autoclave. A solution of 1 mg/mL was prepared for each drug separately. Paper discs soaked in the desired concentration of the complex solution were aseptically placed in Petri dishes containing nutrient agar media (20 g + 3 g of beef extract + 5 g of peptone) seeded with bacterial and fungal strains. After 24 h of incubation at 36 °C, the inhibitory zones in the petri dishes were measured. There were three copies of every treatment. Using the same protocol as previously described, the antifungal Clotrimazole and the common standard antibiotic Ciprofloxacin were also tested for antibacterial activity at the same concentrations and solvent combinations.

[2] = system: colorectal adenocarcinoma (Caco-2); experiment: MTT assay, Caco-2; type: cell-based, human; settings: for IC50: Homo sapiens, Caco-2, 48 h, read-out: Anti-cancer activity CaCo-2 (IC50), MTT, 48 h; for antitumor impact on Caco-2: MTT, 48 h, compared with DOX
Source text: (§4) Mammary gland (MCF-7;# ATCC HTB-22), colorectal adenocarcinoma (Caco-2; # ATCC HTB-37), hepatocellular carcinoma (HepG-2; #ATCC HB-8065), and human lung fibroblast (WI-38; # ATCC CCL-75). The ATCC cell line was obtained via the Holding Company for Biological Products and Vaccines (VACSERA), Cairo, Egypt.
(§5) The MTT test was utilized to ascertain the phosphonate's inhibitory effects on cell growth utilizing the aforementioned cell lines. The basis of this colorimetric assay is the transformation of yellow tetrazolium bromide (MTT) by mitochondrial succinate dehydrogenase in living cells into a purple formazan derivative. 10% fetal bovine serum was added to RPMI-1640 media used to cultivate cell lines. At 37 °C in an incubator with 5% CO2, 100 units/mL of penicillin and 100 µg/mLof streptomycin were introduced as antibiotics. The cell lines were seeded at 1.0 × 10^4 cells/well in a 96-well plate and kept at 37 °C for 24 h with 5% CO2. Following incubation, the cells were subjected to several concentrations of newly synthesized phosphonates and left for 48 h incubation. 20 µL of a 5 mg/mL MTT solution was added and incubated for 4 h after the drug treatment lasted for 48 h. To dissolve the purple formazan produced in each well, 100 µL of dimethyl sulfoxide (DMSO) was applied. Using a plate reader (EXL 800, USA), the colorimetric test is measured and recorded at the absorbance of 570 nm. (A570 of treated samples/A570 of untreated sample) X 100 was used to compute the relative cell viability as a percentage.

[3] = system: hepatocellular carcinoma (HepG-2); experiment: MTT assay, HepG-2; type: cell-based, human; settings: for antitumor impact on HepG-2: compared with DOX
Source text: as §4, §5

Mammary gland (MCF-7) = experiment: MTT assay, MCF-7; type: cell-based, human; settings: for IC50: Homo sapiens, MCF7, 48 h, read-out: Anti-cancer activity MCF-7 (IC50), MTT, 48 h; for antitumor impact on MCF-7: MTT, 48 h, compared with DOX
Source text: as §4, §5

[4] = system: human lung fibroblast (WI-38); experiment: MTT assay, WI-38 normal cells; type: cell-based; settings: 48 h
Source text: as §4, §5

Staphylococcus aureus = experiment: Disc diffusion, S. aureus; type: cell-based; settings: inhibition zone vs standard drug, 1 mg/mL, 24 h, 36 °C
Procedure: as §3

Candida albicans = experiment: Disc diffusion, C. albicans; type: cell-based; settings: inhibition zone vs standard drug, 1 mg/mL, 24 h, 36 °C
Procedure: as §3

Bacillus subtilis = experiment: Disc diffusion, B. subtilis; type: cell-based; settings: inhibition zone vs standard drug, 1 mg/mL, 24 h, 36 °C
Procedure: as §3

Aspergillus flavus = experiment: Disc diffusion, A. flavus; type: cell-based; settings: inhibition zone vs standard drug, 1 mg/mL, 24 h, 36 °C
Procedure: as §3

Pseudomonas aeruginosa = experiment: Disc diffusion, P. aeruginosa; type: cell-based; settings: inhibition zone vs standard drug, 1 mg/mL, 24 h, 36 °C
Procedure: as §3

Escherichia coli = experiment: Disc diffusion, E. coli; type: cell-based; settings: inhibition zone vs standard drug, 1 mg/mL, 24 h, 36 °C
Procedure: as §3

[5] = Homo sapiens, HepG2, 48 h, read-out: Anti-cancer activity HepG-2 (IC50), MTT, 48 h

SMILES | biocidal effect against bacterial and fungal strains [1] | ABTS scavenging (ABTS radical scavenging) | melting point [°C] | IC50 [2] [µM] | antitumor impact on Caco-2 [2] | IC50 [3, 5] [µM] | antitumor impact on HepG-2 ([3]; MTT, 48 h) | DPPH scavenging (DPPH radical scavenging) | IC50 (Mammary gland (MCF-7)) [µM] | antitumor impact on MCF-7 (Mammary gland (MCF-7)) | cytotoxic effect on WI-38 normal cells [4] | other results
O=C1O[C@H]([C@@H](O)CO)C(O)=C1O [L-Ascorbic acid, reference compound] |  |  |  |  |  |  |  |  |  |  |  | IC50 (ABTS radical scavenging): 29.47 ± 0.17 µM; IC50 (DPPH radical scavenging): 16.81 ± 0.1 µM
CCOP(=O)(OCC)C(Nc1ncc(Cl)cc1Cl)c1ccccc1O (stereo not drawn) [Compound 3g, Diethyl (((3,5-dichloropyridin-2-yl)amino)(2-hydroxyphenyl)methyl)phosphonate] | weak | weak capacity | 100 to 102 | 3 | moderate to weak impact | 2.4 | moderate to weak impact | weak capacity | 2.6 | moderate to weak impact |  | 
COc1cccc2c1C(=O)c1c(O)c3c(c(O)c1C2=O)C[C@@](O)(C(=O)CO)C[C@@H]3O[C@H]1C[C@H](N)[C@H](O)[C@H](C)O1 [DOX, reference compound] |  |  |  |  |  |  |  |  |  |  | highly toxic effects | IC50 [4]: 6.72 ± 0.5 µM; IC50 ([3]; MTT, 48 h, read-out: Anti-cancer activity HepG-2 (IC50)): 6.72 ± 0.5 µM
CCOP(=O)(OCC)C(Nc1ncc(Cl)cc1Cl)c1ccc(N(C)C)cc1 (stereo not drawn) [Compound 3e, Diethyl (((3,5-dichloropyridin-2-yl)amino)(4-(dimethylamino)phenyl)methyl)phosphonate] | weak | weak capacity | 70 to 72 |  | moderate to weak impact | 3.1 | moderate to weak impact | weak capacity | 3.4 | moderate to weak impact |  | 
CCOP(=O)(OCC)C(Nc1ncc(Cl)cc1Cl)c1c(O)ccc2ccccc12 (stereo not drawn) [Compound 3d, Diethyl (((3,5-dichloropyridin-2-yl)amino)(2-hydroxynaphthalen-1-yl)methyl)phosphonate] |  |  | 145 to 147 |  |  |  |  |  |  |  | no cytotoxic effects; also recorded: without any toxic effects | IC50 (ABTS radical scavenging): 29.14 ± 0.18 µM; activity index S. aureus (Staphylococcus aureus): 62.5%; activity index C. albicans (Candida albicans): 81.5%; activity index B. subtilis (Bacillus subtilis): 52.2%; activity index A. flavus (Aspergillus flavus): 72%; activity index P. aeruginosa (Pseudomonas aeruginosa): 60.9%; activity index E. coli (Escherichia coli): 42.3%; IC50 (DPPH radical scavenging): 20.04 ± 0.14 µM
CCOP(=O)(OCC)C(Nc1ncc(Cl)cc1Cl)c1ccc(O)c(OC)c1 (stereo not drawn) [Compound 3a, Diethyl(((3,5-dichloropyridin-2-yl)amino)(4-hydroxy-3-methoxyphenyl)methyl)phosphonate] | moderate | moderate impact | 66 to 68 | 3.3 | low effect | 17.9 ± 1.3 |  | moderate impact |  |  | without any toxic effects | 
CCOP(=O)(OCC)C(Nc1ncc(Cl)cc1Cl)c1ccccc1OC (stereo not drawn) [Compound 3c, Diethyl (((3,5-dichloropyridin-2-yl)amino)(2-methoxyphenyl)methyl)phosphonate] | moderate | weak capacity | 73 to 75 | 2.3 | moderate to weak impact |  | moderate to weak impact | weak capacity | 2.1 | moderate to weak impact |  | 
CCOP(=O)(OCC)C(Nc1ncc(Cl)cc1Cl)c1ccc(O)cc1 (stereo not drawn) [Compound 3b, Diethyl (((3,5-dichloropyridin-2-yl)amino)(4-hydroxyphenyl)methyl)phosphonate] | weak | weak capacity | 56 to 58 |  |  | 66.8 ± 3.5 |  | weak capacity |  |  |  | 
CCOP(=O)(OCC)C(Nc1ncc(Cl)cc1Cl)c1ccsc1 (stereo not drawn) [Compound 3f, Diethyl (((3,5-dichloropyridin-2-yl)amino)(thiophen-3-yl)methyl)phosphonate] | moderate | moderate impact | 88 to 90 | 1.7 | low effect |  |  | moderate impact |  |  | without any toxic effects | 
